Results on two compounds are retold here after ChEMBL document CHEMBL2203177, “Tuning the activity of a short arg-trp antimicrobial Peptide by lipidation of a C- or N-terminal lysine side-chain” (ACS Med Chem Lett, 2012).

The test system of data set [1] is Staphylococcus aureus. The data set can be described thus: Antibacterial activity against Staphylococcus aureus ATCC 43300 assessed as growth inhibition after 18 hrs. Type of data set: functional. As to conditions: ATCC 43300, 18 h.
Data set [2] is described as follows: Ratio of IC50 for human GM5657 cells to MIC for Staphylococcus aureus DSM 20231. Format: functional.
The subject of data set [3] is Bacillus subtilis. The data set can be described thus: Bactericidal activity against Bacillus subtilis 168 (trpC2)2 assessed as survival rate at twice MIC concentration incubated for 15 mins measured after 18 hrs. Type of data set: functional, subsp. subtilis str. 168 (trpC2)2.
A short description of data set [4]: Selectivity index, ratio of IC50 for human GM5657 cells to IC50 for human HT29 cells. Format: functional.
For data set [5], the system named is MCF7. The data set can be described thus: Selectivity index, ratio of IC50 for human GM5657 cells to IC50 for human MCF7 cells. Type of data set: functional.
Data set [6] has as its system Bacillus subtilis. The data set can be described thus: Antibacterial activity against Bacillus subtilis 168 DSM 402 assessed as growth inhibition after 18 hrs. Format: functional. As to conditions: subsp. subtilis str. 168 DSM 402, 18 h.
A further data set has as its system HT-29. The data set can be described thus: Cytotoxicity against human HT-29 cells assessed as inhibition of cell viability after 48 hrs by crystal violet assay. Type of data set: functional, cell-based. To be noted: HT-29, 48 h.
The nature of data set [7]: Hemolytic activity against human RBC assessed as hemoglobin leakage. Format: ADME, cell-based, Erythrocyte. To be noted: human red blood cells.
Data set [8] relates to Staphylococcus aureus. Put plainly: Antibacterial activity against Staphylococcus aureus DSM 20231 assessed as growth inhibition after 18 hrs. Format: functional. To be noted: DSM 20231, 18 h.
Data set [9] has as its system MCF7. The data set can be described thus: Cytotoxicity against human MCF7 cells assessed as inhibition of cell viability after 48 hrs by crystal violet assay. Type of data set: functional, cell-based. To be noted: MCF7, 48 h.
For the next data set, the system named is Pseudomonas aeruginosa. The data set can be described thus: Antibacterial activity against Pseudomonas aeruginosa DSM 50071 assessed as growth inhibition after 18 hrs. Type of data set: functional. To be noted: DSM 50071, 18 h.
Data set [10] in a line: Hemolytic activity against human RBC assessed as hemoglobin leakage at 250 ug/ml. As to conditions: human red blood cells, read-out: Activity. Format: ADME, cell-based, Erythrocyte.
A further data set has as its system Escherichia coli. The data set can be described thus: Antibacterial activity against Escherichia coli DSM 30083 assessed as growth inhibition after 18 hrs. Format: functional. As to conditions: DSM 30083, 18 h.
The test system of a further data set is Acinetobacter baumannii. The data set can be described thus: Antibacterial activity against Acinetobacter baumannii DSM 30007 assessed as growth inhibition after 18 hrs. Format: functional. As to conditions: DSM 30007, 18 h.
Data set [11] in a line: Hemolytic activity against human RBC assessed as hemoglobin leakage at 500 ug/ml after 5 mins. Type of data set: ADME, cell-based, Erythrocyte. As to conditions: human red blood cells, read-out: Activity.
The nature of data set [12]: Cytotoxicity against human GM5657 cells assessed as inhibition of cell viability after 48 hrs by crystal violet assay. Format: cell-based. As to conditions: GM5657, 48 h.

pIC50: −log10 of the molar value. Values after ≈ are worked out from the molar mass of the structure shown. Peptide text beside a SMILES is read from it. * marks the point of attachment. Octanoyl = CCCCCCCC(=O)*

As usually defined, the MIC is the lowest concentration that inhibits growth of the organism. A word on the pIC50: it is the negative decadic logarithm of the IC50, by convention in mol/L. As usually defined, the HC50 is the concentration giving 50% haemolysis.

On to `CCCCCCCC(=O)NCCCC[C@H](N)C(=O)N[C@@H](CCCNC(=N)N)C(=O)N[C@@H](Cc1c[nH]c2ccccc12)C(=O)N[C@@H](CCCNC(=N)N)C(=O)N[C@@H](Cc1c[nH]c2ccccc12)C(=O)N[C@@H](CCCNC(=N)N)C(=O)N[C@@H](Cc1c[nH]c2ccccc12)C(N)=O` (H-K(Octanoyl)RWRWRW-NH2), for which the minimum inhibitory concentration (MIC) in the data set on Staphylococcus aureus [1] turned out to be 1 µM (≈ 1.3 µg/mL); in the data set on Bacillus subtilis [6] it was 0.6 µM (≈ 0.779 µg/mL); in the data set with Staphylococcus aureus [8], 2 µM (≈ 2.6 µg/mL); in the data set on Pseudomonas aeruginosa, 9 µM (≈ 11.7 µg/mL); in the data set with Escherichia coli, 5 µM (≈ 6.49 µg/mL); with Acinetobacter baumannii, 9 µM (≈ 11.7 µg/mL). Further, the “Ratio IC50” value in data set [2] was 15; in data set [4] it was 7; in the data set on MCF7 [5] it was 7. Moreover, the Survival with Bacillus subtilis [3] is 0.006%. The pIC50 is 5.37 in the data set on HT-29, 5.34 in the data set with MCF7 [9] and 4.49 in [12]. For the same compound, in data set [7], the HC50 amounted to 114 µM. The hemolysis at 250 ug/ml in [10] was more than 50%. For the same compound, the hemolysis at 5 min, 500 ug/ml in data set [11] worked out at 88%.

`CCCCCCCC(=O)NCCCC[C@H](NC(=O)[C@H](Cc1c[nH]c2ccccc12)NC(=O)[C@H](CCCNC(=N)N)NC(=O)[C@H](Cc1c[nH]c2ccccc12)NC(=O)[C@H](CCCNC(=N)N)NC(=O)[C@H](Cc1c[nH]c2ccccc12)NC(=O)[C@@H](N)CCCNC(=N)N)C(N)=O` (H-RWRWRWK(Octanoyl)-NH2): the MIC in the data set with Staphylococcus aureus [1] was 2 µM (≈ 2.6 µg/mL); with Bacillus subtilis [6], 0.6 µM (≈ 0.779 µg/mL); in the data set with Staphylococcus aureus [8], 2 µM (≈ 2.6 µg/mL); in the data set on Pseudomonas aeruginosa it was 18 µM (≈ 23.4 µg/mL); with Escherichia coli it was 2 µM (≈ 2.6 µg/mL); in the data set on Acinetobacter baumannii it was 5 µM (≈ 6.49 µg/mL). Also, the “Ratio IC50” value in [2] stood at 15; in data set [4], 7; in the data set with MCF7 [5] it was 7. The Survival in the data set on Bacillus subtilis [3] is listed as 0.261%. Further, the pIC50 with HT-29 is 5.35; in the data set with MCF7 [9], 5.33; in data set [12], 4.50. In addition, in [7], the HC50 stood at 285 µM. The hemolysis at 250 ug/ml in [10] turned out to be 10%. In addition, the hemolysis at 5 min, 500 ug/ml in [11] was found to be 48%.
